Experimental data taken from patent US8173639B2, “Isoquinolinone derivatives as NK3 antagonists” (H. Lundbeck A/S, priority 2007, dated 2012).

Legend:
human NK3 receptor [1] = molecular target: T1, human NK3 receptor (Homo sapiens, UniProt P29371); experiment: NK3 receptor binding assay (SPA-based competition binding, 125I-NKB); details: table of Example 10; obtained as described in Example 9; read-out: Affinity Ki
T1 construct: expressed in transfected cells; membrane preparation
T1 sequence (P29371 1-465): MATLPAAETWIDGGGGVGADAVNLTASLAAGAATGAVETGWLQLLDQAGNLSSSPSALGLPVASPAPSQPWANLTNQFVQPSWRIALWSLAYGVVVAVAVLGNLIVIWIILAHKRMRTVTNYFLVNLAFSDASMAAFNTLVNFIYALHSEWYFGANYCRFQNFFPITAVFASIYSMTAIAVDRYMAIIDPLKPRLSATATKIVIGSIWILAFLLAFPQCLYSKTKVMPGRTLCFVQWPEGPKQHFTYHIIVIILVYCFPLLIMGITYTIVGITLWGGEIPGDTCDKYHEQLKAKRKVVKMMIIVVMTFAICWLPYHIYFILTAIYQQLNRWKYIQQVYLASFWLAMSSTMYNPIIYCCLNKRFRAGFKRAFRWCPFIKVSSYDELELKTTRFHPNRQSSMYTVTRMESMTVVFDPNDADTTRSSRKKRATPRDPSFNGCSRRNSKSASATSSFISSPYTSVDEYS
Protocol: Membranepreparation: BHK cells stably expressing the human NK3 receptor were seeded in harvesting plates in Dulbeccos MEM containing GlutaMax (862 mg/l), 1 mM sodium pyruvate, 10% fetal calf serum, 1% Pen/Strep, 1 mg/ml G418 and were grown at 34° C. in a humidified atmosphere containing 10% CO2. To increase receptor expression, 10 μM trichotatin A was added to the media 24 hours before harvest of the cells at a confluency of app 90%. Prior to the harvesting, the cells were washed twice with PBS without Mg^2+ or Ca^2+ and subsequently scrapped of in 10 ml PBS pr harvesting plate. The cells suspension were centrifuged at 1500×G in three minutes before resuspension in 15 mM Tris-HCl pH 7.5 buffer containing 2 mM MgCl2; 0.3 mM EDTA and 1 mM EGTA (buffer A). The cell suspension was homogenised and subsequently centrifuged at 4000×G in 30 minutes. The membrane-pellet was resuspended in buffer A containing 250 mM sucrose, aliquoted and stored at −80° C.
Affinity assay description: The assay was performed as a SPA-based competition-binding assay in a 50 mM Tris pH 7.4 assay buffer containing 120 mM NaCl, 3 mM MnCl2, 40 μg/ml bacitracin, 2 μg/ml Chymostatin, 1 μg/ml Phosphoramidon and 4 μg/ml Leupeptin. […] The assay plate was subsequently under agitation incubated for 90 min at RT. The plate was centrifugated 10 minutes at 500×G and counted in a topcounter 5 minutes pr well.

human NK3 receptor [2] = molecular target: T1, human NK3 receptor; experiment: NK3 receptor efficacy and potency assay (FLIPR Calcium 4, BHK cells); type: cell-based; details: read-out: Potency cIC50
Protocol: BHK cells stably expressing the human NK3 receptor were seeded in 100 μl media in black walled clear-base 96-wells plates (Costar) aiming at a confluency of 95-100% at the day of assay. The assay was performed according to the FLIPR Calcium 4 Assay kit (Molecular Devices). At the day of the assay, the media was removed and the cells were washed once with the HBSS buffer (Hanks BSS buffer, pH 7.4 containing 20 mM Hepes) before 100 μl of a solution of the calcium assay reagent dissolved in the HBSS buffer containing 2.5 mM probinicid was added to the cells. The plates were incubated for 60 min at 34° C., 10% CO2 before use in the FLIPR for examination of fluorescence.
For efficacy and potency evaluation of compounds, these were diluted in HBSS buffer prior to test. For test of agonist activity, 25 μl of the diluted compound solution was added and the plate was analyzed for 5 minutes in the FLIPR. […] The plates were subsequently analyzed for 5 minutes before the assay was terminated. The maximal increase in fluorescence over background following each ligand addition was determined.

[3] = cited from earlier work

Row | Ki (human NK3 receptor [1]) [nM] | IC50 (human NK3 receptor [2]) [nM] | SMILES | effect in clinical trials versus placebo ([3]; in particular on positive symptoms of psychosis) | effect on cognitive behaviour in clinical trials ([3]; schizophrenics)
1 | 160 | 220 | CC[C@H](NC(=O)c1c(CN2CCc3ccccc3C2)n(-c2ccccc2)c(=O)c2ccccc12)c1ccccc1 [Example 2bg, 3-(3,4-Dihydro-1H-isoquinolin-2-ylmethyl)-1-oxo-2-phenyl-1,2-dihydro-isoquinoline-4-carboxylic acid ((S)-1-phenyl-propyl)-amide] |  | 
2 | 320 | 420 | CC[C@H](NC(=O)c1c(CN2CCOCC2)n(-c2ccccc2)c(=O)c2ccccc12)c1ccccc1 [Example 2r, 3-Morpholin-4-ylmethyl-1-oxo-2-phenyl-1,2-dihydro-isoquinoline-4-carboxylic acid ((S)-1-phenyl-propyl)-amide] |  | 
3 | 160 | 300 | CC[C@H](NC(=O)c1c(CN2Cc3ccccc3C2)n(-c2ccccc2)c(=O)c2ccccc12)c1ccccc1 [Example 2bn, 3-(1,3-Dihydro-isoindol-2-ylmethyl)-1-oxo-2-phenyl-1,2-dihydro-isoquinoline-4-carboxylic acid ((S)-1-phenyl-propyl)-amide] |  | 
4 | 76 | 49 | CC[C@H](NC(=O)c1c(CN2CCCNCC2)n(-c2ccccc2)c(=O)c2ccccc12)c1ccccc1 [Example 2cz, 3-[1,4]Diazepan-1-ylmethyl-1-oxo-2-phenyl-1,2-dihydro-isoquinoline-4-carboxylic acid ((S)-1-phenyl-propyl)-amide] |  | 

The remaining lines, values behind:

Row | SMILES | Ki (human NK3 receptor [1]) [nM] | IC50 (human NK3 receptor [2]) [nM] | effect in clinical trials versus placebo ([3]; in particular on positive symptoms of psychosis) | effect on cognitive behaviour in clinical trials ([3]; schizophrenics)
5 | CC[C@H](NC(=O)c1c(CN2CC(C)OC(C)C2)n(-c2ccccc2)c(=O)c2ccccc12)c1ccccc1 (stereo partly drawn) [Example 2s, 3-(2,6-Dimethyl-morpholin-4-ylmethyl)-1-oxo-2-phenyl-1,2-dihydro-isoquinoline-4-carboxylic acid ((S)-1-phenyl-propyl)-amide] | 200 | 340 |  | 
6 | CC(=O)N(C)C1(c2ccccc2)CCN(CCC[C@]2(c3ccc(Cl)c(Cl)c3)CCCN(C(=O)c3ccccc3)C2)CC1 [Osanetant, osanetant] |  |  | superior to placebo | 
7 | CC[C@H](NC(=O)c1c(O)c(-c2ccccc2)nc2ccccc12)c1ccccc1 [talnetant] |  |  |  | ameliorate the cognitive behaviour of schizophrenics
